According to PubChem BioAssay AID248 (DTP/NCI, 2004):
“And” between values parts separate entries of the source, which are not always exact repeats. Equal entries are not always repeated. Inconclusive results and toxic doses are left out. Rule as the data show it: active = T/C of 150% or more; inactive = T/C below 125%.

Tested on: L1210 leukemia ip in BDF1 mice, survival T/C
Assay: NCI In Vivo Anticancer Drug Screen. Data for tumor model L1210 Leukemia (intraperitoneal) in B6D2F1 (BDF1) mice
Details: endpoint: mean survival time, higher = longer survival
How it was run: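 Mice bearing the transplanted tumor received compound or vehicle. Survival of the treated group was divided by that of the vehicle-treated control group to give the ratio.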

[1] = dose: 100.0 mg/kg/injection, schedule: Q04DX003 (ip), vehicle: saline
[2] = dose: 200.0 mg/kg/injection, schedule: Q04DX003 (ip), vehicle: saline
[3] = dose: 12.5 mg/kg/injection, schedule: Q04DX003 (ip), vehicle: Klucel (hydroxypropylcellulose) (HPC)
[4] = dose: 25.0 mg/kg/injection, schedule: Q04DX003 (ip), vehicle: Klucel (hydroxypropylcellulose) (HPC)
[5] = dose: 100.0 mg/kg/injection, schedule: Q04DX003 (ip), vehicle: Klucel (hydroxypropylcellulose) (HPC)
[6] = dose: 6.25 mg/kg/injection, schedule: Q01DX009 (ip), vehicle: saline
[7] = dose: 6.25 mg/kg/injection, schedule: Q04DX003 (ip), vehicle: saline
[8] = dose: 12.5 mg/kg/injection, schedule: Q01DX009 (ip), vehicle: saline
[9] = dose: 12.5 mg/kg/injection, schedule: Q04DX003 (ip), vehicle: saline
[10] = dose: 25.0 mg/kg/injection, schedule: Q01DX009 (ip), vehicle: saline
[11] = dose: 25.0 mg/kg/injection, schedule: Q04DX003 (ip), vehicle: saline
[12] = dose: 50.0 mg/kg/injection, schedule: Q01DX009 (ip), vehicle: saline with Tween-80
[13] = dose: 100.0 mg/kg/injection, schedule: Q01DX009 (ip), vehicle: saline with Tween-80
[14] = dose: 200.0 mg/kg/injection, schedule: Q01DX009 (ip), vehicle: saline with Tween-80
[15] = dose: 100.0 mg/kg/injection, schedule: Q04DX003 (ip), vehicle: saline with Tween-80
[16] = dose: 200.0 mg/kg/injection, schedule: Q04DX003 (ip), vehicle: saline with Tween-80
[17] = dose: 400.0 mg/kg/injection, schedule: Q04DX003 (ip), vehicle: saline with Tween-80

Measured: T/C

C[n+]1ccnc2ccccc21
inactive: dose: 10.0 mg/kg/injection, schedule: Q01DX009 (ip), vehicle: saline with Tween-80 105 % of control | dose: 20.0 mg/kg/injection, schedule: Q01DX009 (ip), vehicle: saline with Tween-80 105 % of control | dose: 40.0 mg/kg/injection, schedule: Q01DX009 (ip), vehicle: saline with Tween-80 104 % of control

C=CCOCCC(=O)OCC=C
inactive: dose: 50.0 mg/kg/injection, schedule: Q01DX009 (ip), vehicle: Klucel (hydroxypropylcellulose) (HPC) 95 % of control | dose: 100.0 mg/kg/injection, schedule: Q01DX009 (ip), vehicle: Klucel (hydroxypropylcellulose) (HPC) 92 % of control | [1] 103 % of control | [2] 103 % of control

Nc1cc2ccncc2c2sc3ccccc3c12
inactive: dose: 100.0 mg/kg/injection, schedule: Q01DX009 (ip), vehicle: saline 86 % of control | [1] 90 % of control | dose: 200.0 mg/kg/injection, schedule: Q01DX009 (ip), vehicle: saline 91 % of control | [2] 90 % of control | dose: 400.0 mg/kg/injection, schedule: Q01DX009 (ip), vehicle: saline 93 % of control | dose: 400.0 mg/kg/injection, schedule: Q04DX003 (ip), vehicle: saline 90 % of control

CC(=O)OC1CC(OC2C(O)CC(OC3C(O)CC(OC4CCC5(C)C(CCC6C5CCC5(C)C(C7=CC(=O)OC7)C(O)CC65O)C4)OC3C)OC2C)OC(C)C1OC1OC(CO)C(O)C(O)C1O (configuration not stated)
inactive: [3] 97 % of control | dose: 25.0 mg/kg/injection, schedule: Q01DX001 (ip), vehicle: carboxymethylcellulose (CMC) 111 % of control | [4] 103 % of control | dose: 50.0 mg/kg/injection, schedule: Q01DX001 (ip), vehicle: carboxymethylcellulose (CMC) 105 % of control | dose: 50.0 mg/kg/injection, schedule: Q04DX003 (ip), vehicle: Klucel (hydroxypropylcellulose) (HPC) 112 % of control | [5] 97 % of control

CC(O)C#N (configuration not stated)
inactive: dose: 0.63 mg/kg/injection, schedule: Q04DX003 (ip), vehicle: saline 102 % of control | dose: 1.25 mg/kg/injection, schedule: Q04DX003 (ip), vehicle: saline 115 % of control | dose: 2.5 mg/kg/injection, schedule: Q04DX003 (ip), vehicle: saline 115 % of control | dose: 5.0 mg/kg/injection, schedule: Q04DX003 (ip), vehicle: saline 103 % of control

O=C(O)C1CCC2CCCCC2[N-]1.O=C(O)C1CCC2CCCCC2[N-]1.[Cu+2] (configuration not stated)
inactive: [6] 97 % of control | [7] 105 % of control | [8] 90 % of control | [9] 100 % of control | [10] 97 % of control | [11] 94 % of control

CC1C[N+](C)=C2CCCCC2=C1N (configuration not stated)
inactive: [6] 105 % of control | [7] 96 % of control | [8] 98 % of control | [9] 98 % of control | [10] 102 % of control | [11] 108 % of control

NNC(=O)c1cccc([N+](=O)[O-])c1
inactive: [3] 100 % of control | [4] 96 % of control

O=C(c1ccccc1)c1c(-c2ccccc2)c(C(=O)c2ccccc2)c2ccccc2c1Cl
inactive: dose: 6.25 mg/kg/injection, schedule: Q01DX009 (ip), vehicle: water 96 % of control | dose: 12.5 mg/kg/injection, schedule: Q01DX009 (ip), vehicle: water 97 % of control | dose: 25.0 mg/kg/injection, schedule: Q01DX009 (ip), vehicle: water 94 % of control and 117 % of control | dose: 50.0 mg/kg/injection, schedule: Q01DX009 (ip), vehicle: water 94 % of control and 97 % of control | dose: 100.0 mg/kg/injection, schedule: Q01DX009 (ip), vehicle: water 101 % of control | dose: 200.0 mg/kg/injection, schedule: Q01DX009 (ip), vehicle: water 101 % of control | dose: 400.0 mg/kg/injection, schedule: Q01DX009 (ip), vehicle: water 97 % of control

OC1CCCCC1C1CCCCC1 (configuration not stated)
inactive: [12] 94 % of control | [13] 94 % of control | dose: 100.0 mg/kg/injection, schedule: Q04DX002 (ip), vehicle: saline 121 % of control | dose: 300.0 mg/kg/injection, schedule: Q04DX002 (ip), vehicle: saline 107 % of control | dose: 400.0 mg/kg/injection, schedule: Q04DX002 (ip), vehicle: saline 100 % of control

O=C(OCCCCOC(=O)c1cccc([N+](=O)[O-])c1)c1cccc([N+](=O)[O-])c1
inactive: dose: 3.12 mg/kg/injection, schedule: Q01DX009 (ip), vehicle: saline with Tween-80 95 % of control | dose: 6.25 mg/kg/injection, schedule: Q01DX009 (ip), vehicle: saline with Tween-80 100 % of control | dose: 12.5 mg/kg/injection, schedule: Q01DX009 (ip), vehicle: saline with Tween-80 97 % of control | dose: 100.0 mg/kg/injection, schedule: Q01DX001 (ip), vehicle: other 102 % of control | dose: 200.0 mg/kg/injection, schedule: Q01DX001 (ip), vehicle: other 95 % of control | dose: 400.0 mg/kg/injection, schedule: Q01DX001 (ip), vehicle: other 93 % of control

CCOC(=O)C(CCCCC(NC(C)=O)(C(=O)OCC)C(=O)OCC)(NC(C)=O)C(=O)OCC
inactive: [13] 92 % of control | [14] 94 % of control | dose: 400.0 mg/kg/injection, schedule: Q01DX009 (ip), vehicle: saline with Tween-80 92 % of control

C#CCOCC(O)C[As](=O)(O)c1ccc(Cl)cc1 (configuration not stated)
inactive: dose: 6.25 mg/kg/injection, schedule: Q01DX001 (ip), vehicle: saline with Tween-80 101 % of control | dose: 12.5 mg/kg/injection, schedule: Q01DX001 (ip), vehicle: saline with Tween-80 106 % of control

NC(=O)N/N=C/C(c1ccccc1)c1ccccc1
inactive: [15] 96 % of control | [16] 94 % of control | [17] 103 % of control

CCCCSc1cc(NS(=O)(=O)c2ccccc2)ccc1NS(=O)(=O)c1ccccc1
inactive: [15] 97 % of control | [16] 93 % of control | [17] 95 % of control

CN(C)c1ccc(/C=C/C=C/C(=O)c2ccccc2)cc1
inactive: [5] 88 % of control | dose: 200.0 mg/kg/injection, schedule: Q04DX003 (ip), vehicle: Klucel (hydroxypropylcellulose) (HPC) 93 % of control | dose: 400.0 mg/kg/injection, schedule: Q04DX003 (ip), vehicle: Klucel (hydroxypropylcellulose) (HPC) 93 % of control

CC(=O)C12CC3CC1C2C3
inactive: dose: 75.0 mg/kg/injection, schedule: Q04DX003 (ip), vehicle: saline 106 % of control | dose: 150.0 mg/kg/injection, schedule: Q04DX003 (ip), vehicle: saline 102 % of control | dose: 300.0 mg/kg/injection, schedule: Q04DX003 (ip), vehicle: saline 101 % of control

O=C1CCCN(C2CCCCC2)CCC1O (configuration not stated)
inactive: dose: 100.0 mg/kg/injection, schedule: Q04DX003 (ip), vehicle: acetone 96 % of control | dose: 200.0 mg/kg/injection, schedule: Q04DX003 (ip), vehicle: acetone 93 % of control

COc1ccccc1NS(=O)(=O)c1ccccc1
inactive: dose: 100.0 mg/kg/injection, schedule: Q01DX001 (ip), vehicle: carboxymethylcellulose (CMC) 92 % of control | dose: 200.0 mg/kg/injection, schedule: Q01DX001 (ip), vehicle: carboxymethylcellulose (CMC) 103 % of control | dose: 400.0 mg/kg/injection, schedule: Q01DX001 (ip), vehicle: carboxymethylcellulose (CMC) 103 % of control

CC[N+](CC)(CC)CCNC(c1ccccc1)C(Cl)(Cl)Cl (configuration not stated)
inactive: dose: 12.5 mg/kg/injection, schedule: Q01DX001 (ip), vehicle: saline 97 % of control | dose: 25.0 mg/kg/injection, schedule: Q01DX001 (ip), vehicle: saline 87 % of control | dose: 50.0 mg/kg/injection, schedule: Q01DX001 (ip), vehicle: saline 95 % of control

CCCN([Si](C)(C)C)[Si](C)(C)C
inactive: [12] 100 % of control | [13] 94 % of control | [15] 99 % of control | [14] 100 % of control | [16] 106 % of control

CN(C)N=Nc1cn(C2CC(O)C(CO)O2)c(=O)[nH]c1=O (configuration not stated)
inactive: dose: 100.0 mg/kg/injection, schedule: Q01DX005 (ip), vehicle: saline 95 % of control | dose: 200.0 mg/kg/injection, schedule: Q01DX005 (ip), vehicle: saline 101 % of control
